Patent US20100197789A1, “ANTI-OBESITY AGENT AND USE THEREOF” (National University Corporation Nagoya University, priority 2006, published 2010)

Experiments:
Type in all cases: in vivo, mouse
[1] = test system: lean mice; test: Food intake amount and body weight, 5 week-continuous oral administration, non-obese lean mice; conditions: lean mice (normal diet); oral 5 weeks; (±)-baclofen 5 mg/kg/day, SKF97541 0.3 mg/kg/day, 3-APPA 5 mg/kg/day
Method: (§1) 5 week-old male C57BL/6N mice (body weight 17 to 20 g, CLEA Japan, Inc.) were purchased and individually fed in tip cages. To the mice, normal pellet diet (CE-2) was administered under free water intake and free food intake. A body weight and a food intake amount over 24 hours were measured every day from the start of feeding. On day 3 after the start of feeding, blood was taken from an orbit after 6 hour-fasting and a blood glucose level and a blood insulin concentration were measured. The mice were divided into a control group and a baclofen treated group (10 mice per each group) so that a body weight, a 24 hour-food intake amount, a blood glucose level, and a blood insulin concentration were equal, and diet induced-obesity (DIO) was started to be induced by administration of high fat diet (High Fat Diet 32, energy fat ratio 60%, CLEA Japan, Inc.) (DIO mice). At the same time as the start of administering the high fat diet, (±)-baclofen was dissolved in drinking water and 5 week-continuous oral administration was started in a dosage of 5 mg per 1 kg of a body weight in 1 day (5 mg/kg/day). A food intake amount and a body weight were measured over time during the 5 week-administration period. (±)-baclofen (5 mg/kg/day) was orally administered also to C57BL/6N mice (lean mice) that are non-obese mice to which normal diet was administered in the same manner as described above, and a food intake amount and a body weight were measured over time.
(§2) 5 week-old male C57BL/6N mice (body weight 17 to 20 g, CLEA Japan, Inc.) were purchased and individually fed in tip cages. Normal pellet diet (CE-2) was administered to the mice under free water intake and free food intake. A body weight and a food intake amount over 24 hours were measured every day from the start of feeding. On day 3 after the start of feeding, blood was taken from an orbit after 6 hour-fasting and a blood glucose level and a blood insulin concentration were measured. The mice were divided into a control group, an SKF97541 treated group and a 3-APPA treated group (10 mice per each group) so that a body weight, a 24 hour-food intake amount, a blood glucose level, and a blood insulin concentration were equal, and diet induced-obesity (DIO) was started to be induced by administration of high fat diet (High Fat Diet 32, energy fat ratio 60%, CLEA Japan, Inc.) (DIO mice). At the same time as the start of administering the high fat diet, SKF97541 (0.3 mg/kg/day) or 3-APPA (5 mg/kg/day) was dissolved in drinking water and 5 week-continuous oral administration was started. A food intake amount and a body weight were measured over time during the 5 week-administration period. SKF97541 (0.3 mg/kg/day) or 3-APPA (5 mg/kg/day) was orally administered also to C57BL/6N mice (lean mice) to which normal diet was administered in the same manner as described above, and a food intake amount and a body weight were measured over time.

[2] = test system: DIO mice; test: Food intake amount and body weight, 5 week-continuous oral administration, diet-induced obese (DIO) mice; conditions: (±)-baclofen 5 mg/kg/day, SKF97541 0.3 mg/kg/day, 3-APPA 5 mg/kg/day; for body weight increase / food intake amount: DIO mice (high fat diet), oral in drinking water 5 weeks; for time after start of administration from which body weight increase suppression was significant / time after start of administration from which food intake suppression was significant: DIO mice, continued until 5 weeks
Method: as §1, §2

[3] = test system: db/db mice; test: Food intake amount and body weight, 5 week-continuous oral administration in drinking water, db/db mice; conditions: SKF97541 10×10^−6 M, 3-APPA 100×10^−6 M in drinking water; for time after start of administration from which body weight increase suppression was significant / time after start of administration from which cumulative food intake suppression was significant: continued until end of experiment; for body weight increase / cumulative food intake amount: oral, 5 weeks
[4] = test system: db/^+m mice; test: Food intake amount and body weight, 5 week-continuous oral administration, non-obese db/+m mice; conditions: SKF97541 10×10^−6 M, 3-APPA 100×10^−6 M in drinking water
Method: 5 week-old male C57BL/KsJ-db/^+m mice (db/^+m mice: body weight 19 to 23 g, Japan SLC, Inc.) were purchased and individually fed in tip cages. To the db/^+m mice, normal pellet diet (CE-2) was administered under free water intake and free food intake. A body weight and a food intake amount over 24 hours were measured every day from the start of feeding. On day 3 after the start of feeding, blood was taken from an orbit after 6 hour-fasting and a blood glucose level and a blood insulin concentration were measured. The db/^+m mice were divided into two groups (10 mice per each group) so that a body weight, a 24 hour-food intake amount, a blood glucose level, and a blood insulin concentration were equal, and defined to be a control group and a baclofen treated group. After division into the groups, from day 5 after the start of feeding, (±)-baclofen was dissolved in drinking water and 5 week-continuous oral administration was started in the baclofen treated group. (±)-baclofen was dissolved in drinking water at a concentration of 2.7 mg/dl used in the high concentration treated group in the experiment of db/db mice. A food intake amount and a body weight of the db/^+m mice were measured over time, and a rectal temperature was measured 5 weeks after the start of the administration. Blood was taken after the 5-week administration of (±)-baclofen, and the db/^+m mice were sacrificed by cervical luxation.
5 week-old male C57BL/KsJ-db/db mice (db/db mice: body weight 19 to 25 g, Japan SLC, Inc.) were purchased and individually fed in tip cages. Normal pellet diet (CE-2) was administered to the db/db mice under free water intake and free food intake. A body weight and a food intake amount over 24 hours were measured every day from the start of feeding. On day 3 after the start of feeding, blood was taken from an orbit after 6 hour-fasting and a blood glucose level and a blood insulin concentration were measured. The db/db mice were divided into three groups (10 mice per each group) so that a body weight, a 24 hour-food intake amount, a blood glucose level, and a blood insulin concentration were equal and defined to be a control group, an SKF97541 treated group and a 3-APPA treated group. SKF97541 and 3-APPA were dissolved in drinking water at respective concentrations of 10×10^−6 M and 100×10^−6 M, and continuously orally administered for 5 weeks, and a food intake amount and a body weight were measured over time during the administration period. SKF97541 (10×10^−6 M) or 3-APPA (100×10^−6M) was dissolved in drinking water and orally administered also to db/^+m mice, and a food intake amount and a body weight were measured over time in the same manner.

[5] = test system: DIO mice; test: Fasting blood glucose, HbA1c, blood insulin, plasma leptin and adiponectin after 5-week administration, DIO mice; conditions: (±)-baclofen 5, SKF97541 0.3, 3-APPA 5 mg/kg/day, vs control; for fasting blood glucose level / fasting blood insulin concentration: 6 hour-fasting after 5 weeks oral; for HbA1c value: after 5 weeks oral
Method: The blood glucose level was measured by a glucose analyzer Antisense (HORIBA, Ltd.) promptly after taking blood from an orbit. HbA1c was measured by a glycohemoglobin analyzer HLC-723 GHbV (manufactured by TOSOH Corporation) after preserving blood at −80° C.
After taking blood from an orbit by using a hematocrit tube coated with heparin, blood was centrifuged at 3500 rpm at 4° C. for 15 minutes, and plasma was preserved at −80° C. The plasma concentrations of insulin, leptin and adiponectin were measured by the ELISA method (levis insulin kit (mouse): Shibayagi Co., Ltd., Morinaga Leptin assay kit: Morinaga Institute of Biological Science, Inc., Mouse/rat adiponectin ELISA kit: OTSUKA Pharmaceutical Co., Ltd.).
(±)-baclofen (5 mg/kg/day), SKF97541 (0.3 mg/kg/day) or 3-APPA (5 mg/kg/day) was orally administered to DIO mice for 5 weeks according to the above described method, and then blood was taken from an orbit after 6 hour-fasting and a blood glucose level, an HbA1c value and a blood insulin concentration were measured.
(±)-baclofen (5 mg/kg/day) was orally administered to DIO mice for 5 weeks according to the above described method, and then, blood was taken from an orbit after 6 hour-fasting, and a plasma leptin concentration and a plasma adiponectin concentration were measured. The DIO mice were sacrificed by cervical luxation after the end of the 5-week administration, and then epididymal white adipose tissues and subcutaneous white adipose tissues were surgically removed, and after measuring the weights, they were fixed in 4% formaldehyde. The epididymal white adipose tissues were cut out to prepare a section with a thickness of 8 μm and subjected to Hematoxylin-Eosin stain (H-E stain) and a form (size) of a fat cell was examined by using an image analysis system, Neurolucida (MicroBrightField Japan, Inc.).

Row | SMILES | body weight [1] | food intake amount [1] | body weight increase [2] | food intake amount [2] | time after start of administration from which body weight increase suppression was significant [2] [week] | time after start of administration from which food intake suppression was significant [2] [week] | time after start of administration from which body weight increase suppression was significant [3] [week] | time after start of administration from which cumulative food intake suppression was significant [3] [weeks] | body weight increase [3] | cumulative food intake amount [3] | body weight [4] | food intake amount [4] | fasting blood glucose level [5] | fasting blood insulin concentration [5] | HbA1c value [5]
1 | NCCCP(=O)(O)O [3-APPA, 3-aminopropylphosphonic acid] | did not give significant effects | did not give significant effects | significantly suppressed | significantly suppressed | 1 | 1 | 1 | 1 | significantly suppressed | significantly suppressed | did not give significant effects | did not give significant effects | significant decreases | significant decreases | significant decreases
2 | CP(=O)(O)CCCN [SKF97541, 3-aminopropyl-(methyl)phosphinic acid] | did not give significant effects | did not give significant effects | significantly suppressed | significantly suppressed | 1 | 1 | 1 | 2 | significantly suppressed | significantly suppressed | did not give significant effects | did not give significant effects | significant decreases | significant decreases | significant decreases
